pIC50: −log10 of the molar value. Read-outs that look alike come from different tables or passages of the source.
Assays:
[1] = Multiple ascending dose (MAD) study, pharmacokinetics in human subjects; type: in vivo
Protocol: The mean AUC0-tau ss (% CV) (135 μg·h/mL (20)) and Cmaxss (% CV) (9488 ng/ml (17)) was determined at the steady state day 8 in case 135 mgs. The mean AUC0-tau ss (% CV) (299 μg·h/mL (21) and Cmaxss(% CV) (17200 ng/ml (18) was determined at the steady state day 8 in case 270 mgrs.
Across all ascending dose studies in humans the increase in dose is linearly related to the increase in AUC. Because of the inter subject variability in clearance it is required to select a start dose which is not excessively above the 200 μg·h/mL target AUCs.
The PK data from the MAD study was used to generate a start dose which is most likely no cause toxicity or adverse events in subjects. A dose of 150 mg was chosen as it would give a geometric mean AUCtau of 167 μg·h/mL SD 33 with a 95% confidence interval of 102-232 μg·h/mL. At this dose approximated 75% of patients will be below 200 μg·h/mL and it is unlikely that any patient will exceed 240 μg·h/mL.

[2] = biological target: T1, mitochondrial pyruvate carrier (MPC) (Homo sapiens, UniProt O95563+Q9Y5U8); assay: BRET assay of MPC inhibitory activity in HEK cells expressing MPC2-Rluc8 and MPC1-Venus; type: cell-based
T1 construct: expressed in transfected cells
T1 sequence (O95563 1-127): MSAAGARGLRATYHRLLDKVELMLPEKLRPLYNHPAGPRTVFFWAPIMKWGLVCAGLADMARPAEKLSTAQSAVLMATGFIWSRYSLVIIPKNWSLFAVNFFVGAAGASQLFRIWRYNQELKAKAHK
T1 sequence (Q9Y5U8 1-109): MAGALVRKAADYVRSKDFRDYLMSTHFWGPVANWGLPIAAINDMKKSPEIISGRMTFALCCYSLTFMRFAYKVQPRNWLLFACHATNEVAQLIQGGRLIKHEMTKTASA
Protocol: The MPC is a heterodimer composed of two subunits, MPC1 and MPC2. MPC1 and MPC2 interact to form an active carrier. In the assay, MPC2 was fused to Rluc8 (Donor) and MPC1 to Venus (Acceptor). These chimeric proteins were stably expressed in HEK cells. BRET activity was measured following addition of coelenterazine in the culture medium. Coelenterazine enters into cells and in contact with luciferase Rluc8 emits light, which activates the emission of fluorescence by the Acceptor, provided the distance between the Donor and Acceptor is <[…]. If the distance between Donor and Acceptor is >[…], no BRET activity is measured. The level of BRET activity reflects a change in the conformation of the MPC: it is high when the carrier is in a closed conformation, low when the carrier is at rest and intermediary when it transports pyruvate. In this case, the BRET activity is the mean value between the BRET value when the carrier is at rest (Maximal distance between Donor and Acceptor) and the BRET value when it is closed (Shortest distance between Donor and Acceptor)
A wide range of concentrations of each of the tested compounds was used from 1 nM to 100 μM.

[3] = tested on: HeLa cells; assay: Seahorse oxygen consumption rate (OCR) in HeLa cells; type: cell-based; conditions: Homo sapiens, 1 h incubation at 37° C.
Protocol: (§1) To determine whether Compound (1) HCl has any effect on pyruvate-mediated mitochondrial respiration, the extracellular flux analyzer Seahorse was used as described in Compan et al. Seahorse experiments were performed in the following cell lines: HeLa (Cervix cancer cells), A549 (lung cancer cells), wild type MDA MB 231, and MDA MB 231 in which MPC2 has been deleted, leading to inactivation of the MPC (MDA MB231 KO). MDA MB231 cells are epithelial breast cancer cells. Cells were incubated with increasing concentrations of the compounds for one hour at 37° C. before oxygen consumption rate (OCR) measurements. The Seahorse analyzer allowed to measure basal and maximal respiration measured upon depolarization with 1 μM CCCP. Effects of Compound (1) HCl on oxygen consumption rates (OCR) in HeLa cells (FIG. 3A) and A549 cells (FIG. 3B) in a representative experiment of n=3. OCR values are expressed as ratios of OCR in the presence of different concentrations of compounds over the OCR in PBS alone.

[4] = tested on: A549 cells; assay: Seahorse oxygen consumption rate (OCR) in A549 cells; type: cell-based; conditions: Homo sapiens, 1 h incubation at 37° C.
Protocol: as §1

[5] = tested on: wild type MDA MB231 cells; assay: Seahorse oxygen consumption rate (OCR) in wild type MDA MB231 cells; type: cell-based
Protocol: as §1, with “CCCP. […] The KO cells have been deleted” for “CCCP. Effects”, “of the MPC2 gene” for “of Compound (1) HCl on oxygen consumption rates (OCR) in HeLa cells (FIG. 3A)”, “and therefore they display no MPC activity. The top panel show” for “and A549 cells (FIG. 3B) in”, “of either wild type (WT) or KO cell lines. […]” for “of n=3.”, “of the tested compound” for “of compounds”

[6] = tested on: MDA MB231 KO cells; assay: Seahorse oxygen consumption rate (OCR) in MDA MB231 KO cells (MPC2 deleted); type: cell-based; conditions: MPC activity genetically deleted
Protocol: as §1, with “CCCP. […] The KO cells have been deleted” for “CCCP. Effects”, “of the MPC2 gene” for “of Compound (1) HCl on oxygen consumption rates (OCR) in HeLa cells (FIG. 3A)”, “and therefore they display no MPC activity. The top panel show” for “and A549 cells (FIG. 3B) in”, “of either wild type (WT) or KO cell lines. […]” for “of n=3.”, “of the tested compound” for “of compounds”

[7] = tested on: adiponectin; assay: Plasma adiponectin by ELISA in Sprague Dawley rats as a measure of PPAR gamma engagement; type: in vivo, rat; conditions: 7 days, 54 mg/Kg/day, plasma 1 h after last administration, vs vehicle p<0.0001
Protocol: Evaluation of effect of Compound (1) HCl on adiponectin was performed in Sprague Dawley wild type rats as a measure of PPAR gamma engagement. The rats were treated for 7 days with increasing doses of Compound (1) HCl at 54 mg/Kg/day. Plasma were obtained at 1 h after the last Compound (1) HCl administration. Adiponectin levels were measured by ELISA. Results were represented as mean+standard error of the mean of n=8. Data were analyzed by Kruskal-Wallis followed by the Dunn post-hoc test versus the vehicle group (****, p<0.0001).

[8] = tested on: MCD diet fed C57BL6/J mice; assay: 7-week Methionine Choline Deficient (MCD) diet NASH mouse model; type: in vivo
Protocol: The preventive effects of Compound (1) HCl was evaluated in a 7-week Methionine Choline Deficient (MCD) diet NASH mouse model (Verdelho Machado et al.). After the acclimation period, C57BL6/J male mice (n=20) were weighed and randomized into 2 homogenous treatment groups based on body weight (n=10/group), put on a MCD diet, and treated BID orally with vehicle or Compound (1) HCl for 7 weeks. Compound (1) HCl was dosed 62.5 mg/kg BID orally by gavage. […] Body weight was measured 3 times/week until the end of the experimental phase. At 7 weeks of diet/treatment, mice were weighed and treated at ˜08:00 am in the morning, then bled (maximal volume/EDTA) at […]. Plasma was then immediately isolated and stored at −80° C. prior to assay plasma ALT and AST. The plasma volume left over was stored at −80° C. for eventual additional analysis. After blood collection, the mice were sacrificed by cervical dislocation under isoflurane anesthesia and exsanguinated with sterile saline. A NAFLD scoring system (NAS) adapted from Kleiner et al. (Hepatology. 41(6):1313-1321 (2005)) using the criteria described in the Table 2 below: Several other histopathological observations described in clinical human cases and originally reported in the NAS scoring system published by Kleiner et al. were not observed in this animal study, such as lipogranuloma, acidophil bodies, megamitochondria, and pigmented macrophages. Therefore, it was elected not to include them in the scoring system described above. An individual mouse NAS total score was calculated for each animal by summing up the score for (1) hepatocellular steatosis, (2) liver inflammation, (3) lobular fibrosis, and (4) hepatocyte ballooning. Histology analysis was performed (oil red 0, H&E and Sirius Red staining) for NAFLD scoring system (NAS) for liver steatosis, inflammation, fibrosis and hepatocyte ballooning.

CC(O)c1ccc(CCOc2ccc(CC3SC(=O)NC3=O)cc2)nc1.Cl (stereo not drawn) [Compound (1) HCl, 5-[[4-[2-[5-(1-hydroxyethyl)pyridin-2-yl]ethoxy]phenyl]methyl]-1,3-thiazolidine-2,4-dione hydrochloride]
change in clearance with time ([1]; human subjects, 135 mg and 270 mg): no change in clearance with time | mean Cmaxss ([1]; human subjects, 135 mg, steady state day 8): 9488 ng/mL | mean Cmaxss ([1]; human subjects, 270 mg, steady state day 8): 17200 ng/mL | AUC ([1]; human, plasma, oral, start dose 150 mg, generated from MAD PK data, SD 33, 95% CI 102-232, read-out: geometric mean AUCtau): 167 µg·h/mL | AUC ([1]; in vivo, human subjects, 135 mg, steady state day 8, read-out: mean AUC0-tau ss): 135 µg·h/mL | AUC ([1]; in vivo, human subjects, 270 mg, steady state day 8, read-out: mean AUC0-tau ss): 299 µg·h/mL | Cmin ss associated with the target AUC0-tau ss ([1]; line of best fit of day 8 MAD data, target AUC0-tau ss 200 μg·h/mL): 5716 ng/mL | pIC50 ([2]; BRET assay, HEK cells, read-out: IC50 MPC inhibitory activity): 5.39 | pIC50 [3]: ~5.30 | pIC50 [4]: ~5.30 | effect on oxygen consumption [5]: inhibits oxygen consumption in a MPC dependent manner | effect on oxygen consumption [6]: does not inhibit oxygen consumption | plasma adiponectin levels [7]: significantly increased | hepatic cholesterol levels ([8]; 62.5 mg/kg BID orally, 7 weeks): did not show a change | body weight loss ([8]; 62.5 mg/kg BID orally, day 14 to day 50): less severe decline in body weight loss | liver inflammation ([8]; 7 weeks): total disappearance of inflammation | oil red o staining % ([8]; 7 weeks, vs vehicle p<0.001): extremely low | steatosis score ([8]; 7 weeks, vs vehicle p<0.001): blunted steatosis score

CC(O)c1ccc(CCOc2ccc(CC3SC(=O)NC3=O)cc2)nc1 (stereo not drawn) [Compound (1), 5-[[4-[2-[5-(1-hydroxyethyl)pyridin-2-yl]ethoxy]phenyl]methyl]-1,3-thiazolidine-2,4-dione]
linearity of pharmacokinetics ([1]; humans): linear pharmacokinetics | oral bioavailability ([1]; humans): orally bioavailable

CN(CCOc1ccc(CC2SC(=O)NC2=O)cc1)c1ccccn1 (stereo not drawn) [Rosiglitazone, rosiglitazone, reference compound]
pIC50 [2]: 5.70

Reference: patent US20210308113A1, “METHOD OF ADMINISTERING A […] EFFECTIVE AMOUNT OF 5-[[4-[2-[5-(1-HYDROXYETHYL)PYRIDIN-2-YL]ETHOXY]PHENYL]METHYL]-1,3-THIAZOLIDINE-2,4-DIONE” (MINORYX THERAPEUTICS S.L., priority 2018, published 2021)
